EC50 data for 90 compounds are collected here from PubChem BioAssay AID1259426 (Fisher Drug Discovery Resource Center, 2018).

Activity calls are given as the source filed them.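 Rule for the calls: active = EC50 under a set limit in control cells lacking the mosquito receptor, marking a fluorescence artifact; inactive = the rest.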 A value given as a limit tells only on which side of the number the result lay.

This assay deals with HEK293 Galpha15/GCaMP6s without NPYLR7, calcium fluorescence. Nature of the assay: nonspecific activation in parental Galpha15/GCaMP6s cells – cell-based, HEK293 lacking NPYLR7, counter-screen for mosquito NPYLR7 agonist project, dose response (AID 1259426).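 Note: potency for a rise in fluorescence over baseline.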
On to `O=C1NC(=S)SC1=Cc1cc(O)c(O)c(Cl)c1`, for which the EC50 was > 20 µM (inactive).
For the compound `Cc1ccc(CN(Cc2ccc(F)cc2)C(=O)CNCCN2CCOCC2)s1`, the EC50 was > 20 µM (inactive).
Take `COc1ccc(CN2CCN(Cc3cccn3-c3ncccn3)CC2CCO)c(C)c1C` (stereo not given): the EC50 is > 20 µM (inactive).
In the case of `CCN(CC)CCNC(=O)c1c(C)[nH]c(/C=C2/C(=O)Nc3ccc(F)cc32)c1C` it was 11.3 µM; in that of `FC(F)(F)c1cc(-c2cccs2)nc2ncnn12`, 18.3 µM.
For the compound `COC(=O)c1cc(N)c(/C=C/c2cccs2)s1`, the 50% effective concentration (EC50) was 0.577 µM.
The figure for `N#CC1C(=N)Oc2cc(O)ccc2C1c1ccc(Cl)cc1Cl` (stereo not given) is 11.9 µM; for `O=C(c1cnn(-c2ccccc2)n1)N1CCCC(COCc2ccccc2)C1` (stereo not given) it is 0.513 µM.
The figure for `N#C/C(=C\c1ccc(O)c(O)c1)C(=O)NCCCc1ccccc1` is > 20 µM (inactive); for `O=C1Nc2ccccc2C1C=NN1CCOCC1` (stereo not given) it is > 20 µM (inactive); for `COc1ccc(N2C(=O)/C(=C\c3ccc[nH]3)N(C)C2=S)c([N+](=O)[O-])c1` it is > 20 µM (inactive).
The figure for `COc1ccc(OC)c(CCNc2nc3cnc(-c4ccc(Cl)cc4)cc3n2C)c1` is > 20 µM (inactive); for `CCOc1cc(C=O)c(O)c(C=O)c1` it is 0.893 µM.
On to `CCCC[n+]1c(C)cc(C=C2Sc3ccccc3N2C)cc1C`, for which the EC50 is > 20 µM (inactive).
In the case of `N#CC1C(=N)SC(=N)C(C#N)C1c1ccccc1F` (stereo not given) it was 10.2 µM; in that of `CCN1C(=Cc2cc(C)[n+](C3CCCCC3)c(C)c2)Sc2ccccc21`, > 20 µM (inactive).
In the case of `CNC[C@H](O)c1ccc(O)c(O)c1` it was 0.039 µM; in that of `COc1ccc(S(=O)(=O)NCC2CCCN(C(=O)CSc3ccccc3)C2)cc1` (stereo not given), > 20 µM (inactive); in that of `COc1ccc(NCc2ccc(OC)c(Br)c2)cn1`, 5.12 µM.
In the case of `COc1cc(C=C(C#N)S(=O)(=O)c2ccc(F)cc2)cc(Br)c1O` it was > 20 µM (inactive); in that of `N#CC(C#N)=C1C=C2C=C(N3CCCC3)CCC2CC1` (stereo not given), under 17.7 µM; in that of `COc1ccc(/C=C2\Oc3c(ccc4c3CN(Cc3ccncc3)CO4)C2=O)cc1`, 8.8 µM.
Consider `O=C1C(=Cc2ccc(OC(F)F)cc2OC(F)F)Oc2cc(O)ccc21`, for which the EC50 was > 20 µM (inactive).
The figure for `COc1cc(C(=O)N2CCOC(c3ccccc3)C2)cc(OC)c1C` (stereo not given) is > 20 µM (inactive).
On to `CCc1ccc(/C=C2\Oc3c(ccc4c3CN(C3CCS(=O)(=O)C3)CO4)C2=O)cc1` (stereo not given), for which the concentration for a half-maximal effect (EC50) is 10.6 µM.
For the compound `O=C(CSc1cn(CC(=O)N2CCCCCC2)c2ccccc12)NC1CCCC1`, the EC50 is > 20 µM (inactive).
The figure for `Cc1ccc(/C=C2/Oc3cc(O)ccc3C2=O)s1` is 17.2 µM; for `C=CCNc1ccc2c3c(cccc13)C(=O)N(c1ccccc1)C2=O` it is 0.0583 µM; for `O=C1NC(=O)C2=Cc3ccc(O)cc3OC2(O)N1` (stereo not given) it is 0.247 µM.
For the compound `COCCOc1ccc(NS(=O)(=O)c2cn(C)c(Cl)n2)cn1`, the EC50 was 7.28 µM.
In the case of `CN(C)c1ccc(/C=C2/SC(=S)N(CC(=O)O)C2=O)cc1` it was 6.89 µM; in that of `Cc1ccc2nc(Cn3cnc4c(Cl)cc(Cl)cc4c3=O)cc(=O)n2c1`, > 20 µM (inactive); in that of `Cc1ccc(OCCNC(=O)N2CCN(S(=O)(=O)c3ccccc3Cl)CC2)c(C)c1`, > 20 µM (inactive).
In the case of `CCN(CC)c1ccc(/C=C2/SC(=S)N(CC(=O)O)C2=O)cc1` it was 0.355 µM.
Regarding `O=C1C(=Cc2ccccc2O)NC(=S)N1Cc1ccco1`, the concentration for a half-maximal effect (EC50) is 0.955 µM.
Turning to `COc1cc(-c2nc3n(n2)C(c2ccc(O)cc2)C(C(N)=O)=C(C)N3)cc(OC)c1OC` (stereo not given), the EC50 is > 20 µM (inactive).
In the case of `CC(=O)Oc1c(/C=C(\C#N)C(N)=O)[nH]c2ccccc12` it was 6.22 µM; in that of `Nc1ccc2c3c(cccc13)C(=O)N(c1ccccc1)C2=O`, 0.415 µM; in that of `O=c1nc2n3ccc(-c4ccncc4)cc3ncc-2s1`, 18.3 µM.
In the case of `CC(C)C(C(=O)O)N1C(=O)/C(=C/c2ccc(N(C)C)cc2)SC1=S` (stereo not given), the EC50 is 12 µM.
With `COc1cc(OC)c(C2=NOC3(CC(=O)N(c4cccc(Cl)c4)C3=O)C2)cc1OC` (stereo not given), the EC50 is > 20 µM (inactive).
Consider `C(=Cc1ccccc1)C=NNc1ncnc2ccccc12`, for which the EC50 is > 20 µM (inactive).
In the case of `CC(=NNc1ncnc2sc(C)c(C)c12)c1ccccn1`, the EC50 entry was “inactive”.
Turning to `O=c1oc2c(CN3CCN(CCO)CC3)c(O)ccc2cc1-c1nc2ccccc2s1`, the half-maximal effective concentration (EC50) is under 0.039 µM.
Take `Cc1ccc(NC2C=CS(=O)(=O)C2)cc1C` (stereo not given): the EC50 was > 20 µM (inactive).
In the case of `COc1cc(/C=C(/C#N)c2nc3cc(Cl)ccc3s2)ccc1O` it was > 20 µM (inactive).
Consider `CCOc1cc2c(cc1C=C(C#N)C#N)OC(C)C2` (stereo not given), for which the EC50 was 14.7 µM.
In the case of `Cc1ccc(Cl)c(Oc2cc(N3CCN(C(=O)c4ccc(Cl)c(Cl)c4)CC3)ncn2)c1` it was > 20 µM (inactive).
In the case of `O=C(c1snc2c(=O)n(Cc3ccccc3)c(=O)[nH]c12)N1CCSCC1` it was > 20 µM (inactive); in that of `COC(=O)C1CCN(S(=O)(=O)c2c(F)cc(F)cc2Br)CC1`, > 20 µM (inactive).
In the case of `Cc1oc(-c2cccc(NC(=O)CC(C)C)c2)nc1CNC(=O)Cc1cc(F)cc(F)c1` it was > 20 µM (inactive); in that of `CC1C(=O)N(c2cccc(F)c2)CCN1C(=O)C1CC1` (stereo not given), > 20 µM (inactive); in that of `C[C@@H]1OC(O[C@H]2[C@H](OC(=O)[C@]34CCC(C)(C)CC3C3=CCC5[C@@]6(C)CC[C@H](OC7O[C@@H](C)[C@H](O[C@@H]8OC[C@@H](O)[C@H](O)[C@H]8O)[C@@H](O)[C@H]7O)C(C)(C)C6CC[C@@]5(C)[C@]3(C)CC4O)OC[C@H](O)[C@H]2O)[C@H](O)[C@H](O)[C@H]1O[C@@H]1O[C@H](CO)[C@@H](O)[C@H](O)[C@H]1O` (stereo not given in full), 10.3 µM.
With `CC(C)NC(=O)C(C)N1CCc2onc(-c3ccc(C(F)(F)F)cc3)c2C1` (stereo not given), the EC50 is 8.58 µM.
The figure for `COC(=O)C(C)Sc1nc2sc3c(c2c(=O)n1C)CCC3` (stereo not given) is > 20 µM (inactive); for `CCC1CN(C(=O)c2cc(C(C)C)on2)CCC(=O)N1Cc1ccccc1` (stereo not given) it is > 20 µM (inactive); for `O=C1c2cccc3c(NCC(O)CCl)ccc(c23)C(=O)N1c1ccccc1` (stereo not given) it is under 0.039 µM.
In the case of `O=[N+]([O-])c1ccc(-n2nc3ccc4nonc4c3n2)cc1` it was > 20 µM (inactive).
For `COc1cc(/C=C2\SC(=S)N(c3cccc(C(=O)O)c3)C2=O)ccc1O`, the EC50 was > 20 µM (inactive).
In the case of `CC1(C)CC(=O)C2C(=Nc3[nH]c(=S)[nH]c(=O)c3C2c2ccc3c(c2)OCO3)C1` (stereo not given) it was > 20 µM (inactive); in that of `COc1cccc(-n2c(O)c(C=Nc3cc(OC)ccc3OC)c3ccccc3c2=O)c1`, > 20 µM (inactive); in that of `COCCN=Cc1cc(I)cc(I)c1O`, > 20 µM (inactive).
As for `CC(C)(C)NCC(O)c1ccc(O)c(CO)c1` (stereo not given), the EC50 was > 20 µM (inactive).
In the case of `CCOC=C(C#N)c1nc(C)cs1`, the half-maximal effective concentration (EC50) is 2.43 µM.
As for `Nc1nc(Cl)nc2c1ncn2[C@@H]1O[C@H](CO)[C@H](O)C1O` (stereo not given in full), the EC50 is 1.42 µM.
In the case of `COc1ccc(/C=C2\Oc3c(ccc4c3CN(C3CCS(=O)(=O)C3)CO4)C2=O)cc1` (stereo not given) it was 8.35 µM; in that of `NC(=O)CN1c2cccc3cccc(c23)S1(=O)=O`, > 20 µM (inactive); in that of `O=C1/C(=C/c2ccc3c(c2)OCO3)Oc2c1ccc1c2CN(CC2CCCO2)CO1` (stereo not given), 8.39 µM.
The figure for `CC1(C)CC(c2[nH]cnc2-c2ccccc2)CCO1` (stereo not given) is > 20 µM (inactive).
The figure for `O=c1[nH]c(CCl)nc2sc3c(c12)CCN(Cc1ccccc1)C3` is > 20 µM (inactive); for `CC(=O)Oc1ccc(Cn2c(C)c(C(=O)NCc3ccc(C#N)cc3)sc2=O)cc1` it is > 20 µM (inactive); for `CCCCCN=C(N)NN=Cc1c[nH]c2ccc(OC)cc12` it is > 20 µM (inactive).
`COc1ccc(C2=NN(C(=O)CN3CCOCC3)C(c3nc4ccccc4[nH]3)C2)cc1` (stereo not given): the EC50 is > 20 µM (inactive).
In the case of `CCN=c1cc2oc3cc(NCC)c(C)cc3c(-c3ccccc3C(=O)OCC)c-2cc1C` it was 0.0953 µM; in that of `COCCn1c(C)cn2c3c(=O)n(Cc4ccc(Cl)cc4)c(=O)n(C)c3nc12`, > 20 µM (inactive); in that of `Cc1cc(O)c(CN2CCN(CCO)CC2)c2c1C(=O)/C(=C/c1cc3ccccc3o1)O2`, 7.38 µM.
In the case of `COc1cc(/C=C2\C(=N)N3N=CSC3=NC2=O)cc(Br)c1OC(=O)c1ccco1` it was 10 µM; in that of `COc1cc(OC)c(OC)cc1/C=C1/SC(=S)N(CC(=O)O)C1=O`, 5.82 µM.
In the case of `Cc1cc2nc3c(=O)[nH]c(=O)nc-3n(C[C@H](O)[C@H](O)[C@H](O)CO)c2cc1C` it was 0.508 µM.
Consider `CC(C)CN1C(=O)C(=Cc2c(N3CCN(CCO)CC3)nc3ccccn3c2=O)SC1=S`, for which the EC50 was > 20 µM (inactive).
`Cc1cccc(C2=N/C(=C\c3cc4cc5c6c(c4oc3=O)CCCN6CCC5)C(=O)O2)c1`: the concentration giving a half-maximal response (EC50) was 0.219 µM.
The figure for `CCCCC(CC)CN=C(N)NC(N)=NCCCCCCN=C(N)NC(N)=NCC(CC)CCCC` (stereo not given) is > 20 µM (inactive); for `CN1CCN(Cc2c(O)ccc3c2O/C(=C\c2cc4cc(Br)ccc4o2)C3=O)CC1` it is 12.7 µM; for `c1ccc(CNc2nc(NCCc3ccncc3)c3sccc3n2)cc1` it is 15.8 µM.
The figure for `O=C(CC1SC(=O)NC1=O)Oc1ccc(/C=C2\SC(=O)NC2=S)cc1` (stereo not given) is 7.71 µM.
Take `C=CCN1C=CC(=CC=C(C#N)C#N)C=C1`: the EC50 is 2.17 µM.
In the case of `CCOC(=O)c1c(-c2ccccc2)csc1N=Cc1nc(-c2ccccc2)oc1O` it was > 20 µM (inactive); in that of `N#Cc1c(N)nc2c(c1N)C(Sc1ccccc1)c1ccc(O)cc1O2` (stereo not given), under 0.039 µM; in that of `CCN1C(=Cc2cc(C)[n+](CC3CCCO3)c(C)c2)Sc2ccccc21` (stereo not given), > 20 µM (inactive).
In the case of `CCN(CC)Cc1c(O)cc(C)c2c1O/C(=C\c1cc3ccccc3o1)C2=O` it was 9.1 µM.

As a reminder, the EC50 is the concentration giving half of the maximal effect.
